Data: PubChem BioAssay (NCI)
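Protocol summary: plate cells (96-well), add compound at 5 concentrations, incubate 48 h, interpolate endpoints linearly. GI50 = concentration required for 50% inhibition of growth. TGI: total growth inhibition.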

Columns and labels:
Test in all cases: inhibition of tumour cell growth, NCI panel, 48 h
CAKI-1 renal = test system: CAKI-1 renal
NCI-H23 lung = test system: NCI-H23 lung
LOX IMVI melanoma = test system: LOX IMVI melanoma
MCF7 breast = test system: MCF7 breast
SF-539 CNS = test system: SF-539 CNS
DU-145 prostate = test system: DU-145 prostate
CCRF-CEM leukemia = test system: CCRF-CEM leukemia
NCI-H226 lung = test system: NCI-H226 lung
ACHN renal = test system: ACHN renal
HOP-92 NSCLC = test system: HOP-92 NSCLC
SNB-75 CNS = test system: SNB-75 CNS

Structure (SMILES)	TGI (CAKI-1 renal)	TGI (NCI-H23 lung)	TGI (LOX IMVI melanoma)	TGI (MCF7 breast)	TGI (SF-539 CNS)	TGI (DU-145 prostate)	TGI (CCRF-CEM leukemia)	TGI (NCI-H226 lung)	TGI (ACHN renal)	TGI (HOP-92 NSCLC)	TGI (SNB-75 CNS)	GI50 (NCI-H23 lung)
CC(C)(C)C1CCC2c3c([nH]c4ccccc34)C3C(=O)N(c4ccc5c(c4)C(=O)c4ccccc4C5=O)C(=O)C3C2C1 (centres undefined)	> 100 µM	> 100 µM	> 100 µM	> 100 µM	> 100 µM	> 100 µM	> 100 µM	> 100 µM	> 100 µM	–	–	–
COc1cc2c(cc1OC)C(=O)N(NC1=NCCN1)C2=O	> 100 µM	> 100 µM	> 100 µM	> 100 µM	> 100 µM	> 100 µM	> 100 µM	> 100 µM	> 100 µM	–	–	–
COc1ccccc1CNC(=O)[C@H](Cc1ccc(O)cn1)NC(C)=O	> 100 µM	> 100 µM	> 100 µM	> 100 µM	> 100 µM	> 100 µM	> 100 µM	> 100 µM	> 100 µM	> 100 µM	–	–
COc1cccc(-c2nc(-c3cnccn3)n(COCCO)n2)c1	–	> 100 µM	> 100 µM	> 100 µM	> 100 µM	> 100 µM	> 100 µM	–	–	> 100 µM	–	–
O=C(CC1C(=O)c2ccccc2C1=C1C(=O)c2ccccc2C1=O)c1ccccc1 (centres undefined)	> 100 µM	> 100 µM	> 100 µM	–	> 100 µM	–	> 100 µM	> 100 µM	> 100 µM	> 100 µM	> 100 µM	–
COCCOC(=O)C(C)=[N+]=[N-]	> 100 µM	> 100 µM	> 100 µM	> 100 µM	–	> 100 µM	–	> 100 µM	> 100 µM	–	> 100 µM	–
CCCCNC(=S)/N=C/c1c(O)c2ccccc2[nH]c1=O	> 10 µM	> 10 µM	–	> 10 µM	> 10 µM	–	> 10 µM	> 10 µM	> 10 µM	> 10 µM	–	–
Cc1ccc2c(=O)cc(-c3sc4ccccc4c3C)[nH]c2n1	53.3 µM	48.1 µM	46.7 µM	> 100 µM	–	65.9 µM	58.4 µM	81.3 µM	–	30.6 µM	50.8 µM	19.7 µM
NCc1cc(O)c(O)c(O)c1	> 100 µM	–	> 100 µM	–	–	–	> 100 µM	> 100 µM	> 100 µM	> 100 µM	> 100 µM	–
CC[C@@H]1/C=C/C=C/C[C@H](C)[C@@H](O)[C@](C)(O)C(=O)[C@H](C)[C@@H](O)[C@H](C)C(=O)[C@H](C)[C@@H](O)[C@H](C)/C=C/C(=O)O[C@H]2[C@@H](C)[C@@H](CC1)O[C@@]1(CC[C@@H](C)[C@@H](CC(C)O)O1)[C@@H]2C (some centres undefined)	12.7 µM	7.94 µM	4.32 µM	7.08 µM	10.3 µM	6.76 µM	6.05 µM	–	8.69 µM	6.11 µM	9.11 µM	–
O=c1[nH]n(Cc2ccccc2Cl)c2ccccc12	> 100 µM	> 100 µM	> 100 µM	–	> 100 µM	> 100 µM	> 100 µM	> 100 µM	> 100 µM	> 100 µM	> 100 µM	–
CC(C)(C)OC(=O)N(CCCCNCc1ccc2ccccc2c1)CCCNCc1ccc2ccccc2c1	2.45 µM	3.42 µM	–	–	2.97 µM	3.1 µM	2.86 µM	3.08 µM	3.39 µM	3.18 µM	2.99 µM	–
C=CCN1CN(c2ccccc2)C2(CCN(CCCC3(c4ccc(F)cc4)OCCO3)CC2)C1=O	75.6 µM	30 µM	34.5 µM	30.5 µM	23.1 µM	61.1 µM	41.4 µM	36.2 µM	48.3 µM	–	32.8 µM	–
O=c1[nH]c2c(c(=O)[nH]1)SSC2	44.5 µM	26.9 µM	6.24 µM	> 54.3 µM	9.7 µM	28.9 µM	–	41.1 µM	> 67.5 µM	10.7 µM	34.8 µM	–
COc1ccc(NC2CC(C)N(C(=O)c3ccccc3)O2)cc1 (centres undefined)	> 10 µM	> 10 µM	> 10 µM	> 10 µM	> 10 µM	> 10 µM	> 10 µM	–	> 10 µM	–	> 10 µM	–
N#Cc1nc(COCCOCc2ccc(F)cc2)oc1N	> 100 µM	> 100 µM	> 100 µM	> 100 µM	> 100 µM	> 100 µM	> 100 µM	> 100 µM	> 100 µM	–	> 100 µM	–
O=C1Oc2cc3c(c4cccc1c24)O[C@H](c1ccccc1)[C@@H](c1ccccc1)[C@@H]3c1ccc(Cl)cc1	> 100 µM	> 100 µM	> 100 µM	> 100 µM	> 100 µM	> 100 µM	> 100 µM	> 100 µM	> 100 µM	67.9 µM	–	–
O=C(/C=C(\O)c1ccccc1)c1cc(-c2ccccc2)n(-c2ccccc2)n1	54.5 µM	> 100 µM	> 100 µM	> 100 µM	72.3 µM	> 100 µM	7.16 µM	25.2 µM	23.9 µM	–	–	–
CN(C)Cc1cc(N=Nc2ccc(Cl)cc2)ccc1OC(=O)c1ccccc1	–	34.4 µM	27.6 µM	28.7 µM	34.5 µM	30.7 µM	38.8 µM	54.3 µM	28.7 µM	11.1 µM	38.7 µM	–
CCOP(=O)(OCC)/C(C#N)=C/c1ccnc2ccccc12	80.3 µM	59.7 µM	> 100 µM	> 100 µM	49.2 µM	> 100 µM	–	55.9 µM	> 100 µM	43.7 µM	75.8 µM	–
c1ccc(CC2(c3cc4ccccc4[nH]3)OCCO2)nc1	> 100 µM	> 100 µM	> 100 µM	–	> 100 µM	> 100 µM	> 100 µM	> 100 µM	> 100 µM	> 100 µM	> 100 µM	–
CC(=O)O[C@@H](C1C[C@@H](C)[C@H]2[C@@](O)(O1)[C@H](O)[C@@]1(C)C3=CC[C@H]4C(C)(C)[C@@H](OC5OCC(O)C(O)C5O)CC[C@@]45C[C@@]35CC[C@]21C)C(C)(C)O (some centres undefined)	> 100 µM	49 µM	42.4 µM	50.3 µM	30.3 µM	70 µM	24.4 µM	45.9 µM	47.2 µM	60.5 µM	–	–
